Measurements as given in US9969694B2, “N-(arylalkyl)-N′-pyrazolyl-urea, thiourea, guanidine and cyanoguanidine compounds as TrkA kinase inhibitors” (Array BioPharma Inc., priority 2012, dated 2018).

Columns and labels:
Assay in all cases: Off-Target Kinase Profiling
Assay type in all cases: biochemical
Conditions in all cases: 10 μM; ATP near Km
PRKG1beta = target: T1, PRKG1beta (Homo sapiens, UniProt Q13976)
T1 construct: purchased Millipore, Inc. (KinaseProfiler service)
How it was run: (§1)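 ATP ≈ Km; compound 10 μM; duplicates averaged; POC.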

GRK7 = target: T2, GRK7 (Homo sapiens, UniProt Q8WTQ7)
T2 construct: purchased Millipore, Inc. (KinaseProfiler service)
How it was run: as §1

TrkA = target: T3, TrkA (Homo sapiens, UniProt P04629)
T3 construct: purchased Millipore, Inc. (KinaseProfiler service)
How it was run: as §1

CDK9/cyclinT1 = target: T4, CDK9/cyclinT1 (Homo sapiens, UniProt P50750)
T4 construct: purchased Millipore, Inc. (KinaseProfiler service)
How it was run: as §1

GRK6 = target: T5, GRK6 (Homo sapiens, UniProt P43250)
T5 construct: purchased Millipore, Inc. (KinaseProfiler service)
How it was run: as §1

CSK = target: T6, CSK (Homo sapiens, UniProt P41240)
T6 construct: purchased Millipore, Inc. (KinaseProfiler service)
How it was run: as §1

IGF-1R Activated = target: T7, IGF-1R Activated (Homo sapiens, UniProt P08069)
T7 construct: purchased Millipore, Inc. (KinaseProfiler service)
T7 sequence (P08069 959-1367 limits assumed): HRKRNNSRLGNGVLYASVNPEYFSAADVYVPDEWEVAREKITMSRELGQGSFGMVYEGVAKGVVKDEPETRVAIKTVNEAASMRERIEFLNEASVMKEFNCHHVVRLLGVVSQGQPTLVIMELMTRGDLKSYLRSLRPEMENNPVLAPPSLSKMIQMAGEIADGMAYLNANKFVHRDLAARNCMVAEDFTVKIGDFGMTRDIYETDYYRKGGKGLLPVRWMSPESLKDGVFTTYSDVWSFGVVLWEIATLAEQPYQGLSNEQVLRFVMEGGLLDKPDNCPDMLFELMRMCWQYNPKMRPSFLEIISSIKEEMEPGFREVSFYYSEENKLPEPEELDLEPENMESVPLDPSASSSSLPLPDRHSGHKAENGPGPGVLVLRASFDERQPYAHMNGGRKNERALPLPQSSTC
How it was run: as §1

LOK = target: T8, LOK (Homo sapiens, UniProt O94804)
T8 construct: purchased Millipore, Inc. (KinaseProfiler service)
How it was run: as §1

IGF-1R = target: T9, IGF-1R (Homo sapiens, UniProt P08069)
T9 construct: purchased Millipore, Inc. (KinaseProfiler service)
How it was run: as §1

Abl2 = target: T10, Abl2 (Homo sapiens, UniProt P42684)
T10 construct: purchased Millipore (KinaseProfiler service)
T10 sequence (P42684 whole entry): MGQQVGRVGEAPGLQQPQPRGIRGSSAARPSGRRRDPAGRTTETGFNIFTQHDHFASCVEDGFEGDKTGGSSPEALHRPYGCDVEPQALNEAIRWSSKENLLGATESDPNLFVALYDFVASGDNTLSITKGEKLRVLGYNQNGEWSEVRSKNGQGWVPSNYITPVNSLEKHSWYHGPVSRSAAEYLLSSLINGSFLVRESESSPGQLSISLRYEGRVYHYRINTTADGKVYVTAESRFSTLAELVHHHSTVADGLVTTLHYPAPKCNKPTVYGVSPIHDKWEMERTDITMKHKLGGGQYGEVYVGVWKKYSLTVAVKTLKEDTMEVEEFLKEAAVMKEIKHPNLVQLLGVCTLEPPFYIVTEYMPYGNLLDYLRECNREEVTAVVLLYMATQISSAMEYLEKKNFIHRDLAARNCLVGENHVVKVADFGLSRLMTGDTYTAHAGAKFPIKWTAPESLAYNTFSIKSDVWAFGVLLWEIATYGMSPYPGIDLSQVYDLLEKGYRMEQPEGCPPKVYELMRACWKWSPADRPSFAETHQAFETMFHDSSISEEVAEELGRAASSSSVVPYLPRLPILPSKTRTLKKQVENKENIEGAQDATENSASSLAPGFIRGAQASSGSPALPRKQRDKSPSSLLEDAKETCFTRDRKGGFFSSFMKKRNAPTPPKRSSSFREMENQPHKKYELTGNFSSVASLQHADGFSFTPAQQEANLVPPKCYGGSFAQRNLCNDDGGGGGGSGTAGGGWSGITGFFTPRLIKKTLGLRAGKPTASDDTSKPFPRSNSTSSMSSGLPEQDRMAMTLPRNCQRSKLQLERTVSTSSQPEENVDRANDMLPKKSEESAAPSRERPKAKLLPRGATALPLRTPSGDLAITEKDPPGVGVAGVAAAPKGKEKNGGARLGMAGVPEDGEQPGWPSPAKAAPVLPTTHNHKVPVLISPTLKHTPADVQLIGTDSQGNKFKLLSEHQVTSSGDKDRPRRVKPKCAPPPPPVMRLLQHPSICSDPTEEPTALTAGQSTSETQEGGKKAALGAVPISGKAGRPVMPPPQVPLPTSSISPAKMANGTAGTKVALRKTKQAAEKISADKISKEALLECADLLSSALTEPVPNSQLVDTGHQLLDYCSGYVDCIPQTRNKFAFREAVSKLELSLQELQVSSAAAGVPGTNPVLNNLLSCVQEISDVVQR
How it was run: as §1

EphA3 = target: T11, EphA3 (Homo sapiens, UniProt P29320)
T11 construct: purchased Millipore, Inc. (KinaseProfiler service)
How it was run: as §1

AKT3 = target: T12, AKT3 (Homo sapiens, UniProt Q9Y243)
T12 construct: purchased Millipore (KinaseProfiler service)
How it was run: as §1

p38delta = target: T13, p38delta (Homo sapiens, UniProt O15264)
T13 construct: purchased Millipore, Inc. (KinaseProfiler service)
How it was run: as §1

MSK2 = target: T14, MSK2 (Homo sapiens, UniProt O75676)
T14 construct: purchased Millipore, Inc. (KinaseProfiler service)
How it was run: as §1

MRCKalpha = target: T15, MRCKalpha (Homo sapiens, UniProt Q5VT25)
T15 construct: purchased Millipore, Inc. (KinaseProfiler service)
How it was run: as §1

Tie2 = target: T16, Tie2 (Homo sapiens, UniProt Q02763)
T16 construct: purchased Millipore, Inc. (KinaseProfiler service)
How it was run: as §1

CK1gamma1 = target: T17, CK1gamma1 (Homo sapiens, UniProt Q9HCP0)
T17 construct: purchased Millipore, Inc. (KinaseProfiler service)
How it was run: as §1

MST2 = target: T18, MST2 (Homo sapiens, UniProt Q13188)
T18 construct: purchased Millipore, Inc. (KinaseProfiler service)
How it was run: as §1

WNK3 = target: T19, WNK3 (Homo sapiens, UniProt Q9BYP7)
T19 construct: purchased Millipore, Inc. (KinaseProfiler service)
T19 sequence (Q9BYP7 whole entry): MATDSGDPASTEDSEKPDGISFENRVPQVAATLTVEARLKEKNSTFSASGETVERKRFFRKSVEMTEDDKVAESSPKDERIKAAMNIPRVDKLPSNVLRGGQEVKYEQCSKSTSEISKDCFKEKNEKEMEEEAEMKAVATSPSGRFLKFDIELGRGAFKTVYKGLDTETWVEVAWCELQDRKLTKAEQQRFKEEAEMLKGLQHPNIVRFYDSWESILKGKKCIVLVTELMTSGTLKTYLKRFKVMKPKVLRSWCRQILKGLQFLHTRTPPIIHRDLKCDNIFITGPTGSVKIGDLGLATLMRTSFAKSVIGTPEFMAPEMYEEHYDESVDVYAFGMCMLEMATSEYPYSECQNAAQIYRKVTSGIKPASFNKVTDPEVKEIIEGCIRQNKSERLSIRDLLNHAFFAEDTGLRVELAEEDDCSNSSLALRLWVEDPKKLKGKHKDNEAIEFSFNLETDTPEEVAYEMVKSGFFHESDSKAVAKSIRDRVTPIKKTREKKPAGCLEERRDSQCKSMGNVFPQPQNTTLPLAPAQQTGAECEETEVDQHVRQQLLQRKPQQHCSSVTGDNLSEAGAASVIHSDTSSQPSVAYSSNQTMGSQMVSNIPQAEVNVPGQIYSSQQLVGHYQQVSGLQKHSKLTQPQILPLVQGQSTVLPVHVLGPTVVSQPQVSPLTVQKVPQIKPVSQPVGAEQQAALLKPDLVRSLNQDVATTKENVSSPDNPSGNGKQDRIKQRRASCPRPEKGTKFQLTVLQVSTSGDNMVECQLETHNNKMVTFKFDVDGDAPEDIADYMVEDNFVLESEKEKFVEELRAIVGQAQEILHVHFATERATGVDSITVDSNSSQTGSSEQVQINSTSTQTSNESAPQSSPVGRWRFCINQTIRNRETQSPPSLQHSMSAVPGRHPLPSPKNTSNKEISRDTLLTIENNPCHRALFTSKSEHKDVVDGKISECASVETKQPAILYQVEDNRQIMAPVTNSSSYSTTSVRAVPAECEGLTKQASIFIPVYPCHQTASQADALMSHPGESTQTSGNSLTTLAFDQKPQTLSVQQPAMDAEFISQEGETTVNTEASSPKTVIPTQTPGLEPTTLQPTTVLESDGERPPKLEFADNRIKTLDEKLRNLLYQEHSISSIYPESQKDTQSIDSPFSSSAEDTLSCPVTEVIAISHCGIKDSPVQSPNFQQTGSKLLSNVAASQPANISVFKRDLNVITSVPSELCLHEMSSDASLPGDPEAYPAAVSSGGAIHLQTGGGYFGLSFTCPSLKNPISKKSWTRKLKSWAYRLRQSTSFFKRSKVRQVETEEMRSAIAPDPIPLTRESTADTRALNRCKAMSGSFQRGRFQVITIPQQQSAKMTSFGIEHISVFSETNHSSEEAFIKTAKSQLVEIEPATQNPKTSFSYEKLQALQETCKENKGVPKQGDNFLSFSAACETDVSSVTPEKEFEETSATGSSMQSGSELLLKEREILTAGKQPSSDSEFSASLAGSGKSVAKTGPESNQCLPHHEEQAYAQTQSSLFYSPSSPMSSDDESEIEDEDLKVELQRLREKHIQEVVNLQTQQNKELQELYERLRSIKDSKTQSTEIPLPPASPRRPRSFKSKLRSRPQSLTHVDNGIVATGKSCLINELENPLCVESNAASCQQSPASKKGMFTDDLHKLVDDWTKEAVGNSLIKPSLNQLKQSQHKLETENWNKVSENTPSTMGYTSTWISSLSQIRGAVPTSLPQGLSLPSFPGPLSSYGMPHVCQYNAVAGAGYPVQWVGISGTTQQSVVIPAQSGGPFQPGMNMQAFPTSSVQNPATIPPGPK
How it was run: as §1

PKCzeta = target: T20, PKCzeta (Homo sapiens, UniProt Q05513)
T20 construct: purchased Millipore, Inc. (KinaseProfiler service)
How it was run: as §1

PKCbetaII = target: T21, PKCbetaII (Homo sapiens, UniProt P05771)
T21 construct: purchased Millipore, Inc. (KinaseProfiler service)
How it was run: as §1

SRPK1 = target: T22, SRPK1 (Homo sapiens, UniProt Q96SB4)
T22 construct: purchased Millipore, Inc. (KinaseProfiler service)
How it was run: as §1

Hck = target: T23, Hck (Homo sapiens, UniProt P08631)
T23 construct: purchased Millipore, Inc. (KinaseProfiler service)
How it was run: as §1

SIK = target: T24, SIK (Homo sapiens, UniProt P57059)
T24 construct: purchased Millipore, Inc. (KinaseProfiler service)
T24 sequence (P57059 whole entry): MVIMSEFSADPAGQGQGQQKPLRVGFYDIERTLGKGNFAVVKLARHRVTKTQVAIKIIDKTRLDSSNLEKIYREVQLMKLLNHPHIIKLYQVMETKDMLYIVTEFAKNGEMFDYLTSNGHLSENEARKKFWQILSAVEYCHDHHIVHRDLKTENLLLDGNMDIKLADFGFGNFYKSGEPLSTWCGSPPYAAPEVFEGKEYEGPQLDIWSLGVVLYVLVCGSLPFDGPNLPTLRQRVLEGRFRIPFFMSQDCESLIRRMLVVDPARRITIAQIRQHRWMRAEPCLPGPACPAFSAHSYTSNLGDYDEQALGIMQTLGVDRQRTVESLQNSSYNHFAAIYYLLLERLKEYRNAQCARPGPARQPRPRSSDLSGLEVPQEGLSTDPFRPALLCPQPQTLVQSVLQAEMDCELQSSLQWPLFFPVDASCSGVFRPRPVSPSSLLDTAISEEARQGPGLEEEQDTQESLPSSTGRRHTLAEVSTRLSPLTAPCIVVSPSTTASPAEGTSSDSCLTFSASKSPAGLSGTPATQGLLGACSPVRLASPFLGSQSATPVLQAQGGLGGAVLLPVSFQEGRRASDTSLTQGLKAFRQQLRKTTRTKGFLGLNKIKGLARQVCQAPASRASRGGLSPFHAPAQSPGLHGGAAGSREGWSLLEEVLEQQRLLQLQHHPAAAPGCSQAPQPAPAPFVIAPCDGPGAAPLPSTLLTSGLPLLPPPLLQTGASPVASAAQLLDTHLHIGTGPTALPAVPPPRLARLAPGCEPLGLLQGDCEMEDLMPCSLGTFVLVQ
How it was run: as §1

Plk3 = target: T25, Plk3 (Homo sapiens, UniProt Q9H4B4)
T25 construct: purchased Millipore, Inc. (KinaseProfiler service)
How it was run: as §1

SRC = target: T26, SRC (Homo sapiens, UniProt P12931)
T26 construct: purchased Millipore, Inc. (KinaseProfiler service)
How it was run: as §1

MSK1 = target: T27, MSK1 (Homo sapiens, UniProt O75582)
T27 construct: purchased Millipore, Inc. (KinaseProfiler service)
How it was run: as §1

MST3 = target: T28, MST3 (Homo sapiens, UniProt Q9Y6E0)
T28 construct: purchased Millipore, Inc. (KinaseProfiler service)
How it was run: as §1

DYRK2 = target: T29, DYRK2 (Homo sapiens, UniProt Q92630)
T29 construct: purchased Millipore, Inc. (KinaseProfiler service)
How it was run: as §1

AKT1 = target: T30, AKT1 (Homo sapiens, UniProt P31749)
T30 construct: purchased Millipore (KinaseProfiler service)
How it was run: as §1

JAK3 = target: T31, JAK3 (Homo sapiens, UniProt P52333)
T31 construct: purchased Millipore, Inc. (KinaseProfiler service)
How it was run: as §1

CDK3/cyclinE = target: T32, CDK3/cyclinE (Homo sapiens, UniProt Q00526)
T32 construct: purchased Millipore, Inc. (KinaseProfiler service)
How it was run: as §1

MKK7beta = target: T33, MKK7beta (Homo sapiens, UniProt O14733)
T33 construct: purchased Millipore, Inc. (KinaseProfiler service)
How it was run: as §1

ULK3 = target: T34, ULK3 (Homo sapiens, UniProt Q6PHR2)
T34 construct: purchased Millipore, Inc. (KinaseProfiler service)
How it was run: as §1

T1 sequence (Q13976 1-686 isoform Q13976-2): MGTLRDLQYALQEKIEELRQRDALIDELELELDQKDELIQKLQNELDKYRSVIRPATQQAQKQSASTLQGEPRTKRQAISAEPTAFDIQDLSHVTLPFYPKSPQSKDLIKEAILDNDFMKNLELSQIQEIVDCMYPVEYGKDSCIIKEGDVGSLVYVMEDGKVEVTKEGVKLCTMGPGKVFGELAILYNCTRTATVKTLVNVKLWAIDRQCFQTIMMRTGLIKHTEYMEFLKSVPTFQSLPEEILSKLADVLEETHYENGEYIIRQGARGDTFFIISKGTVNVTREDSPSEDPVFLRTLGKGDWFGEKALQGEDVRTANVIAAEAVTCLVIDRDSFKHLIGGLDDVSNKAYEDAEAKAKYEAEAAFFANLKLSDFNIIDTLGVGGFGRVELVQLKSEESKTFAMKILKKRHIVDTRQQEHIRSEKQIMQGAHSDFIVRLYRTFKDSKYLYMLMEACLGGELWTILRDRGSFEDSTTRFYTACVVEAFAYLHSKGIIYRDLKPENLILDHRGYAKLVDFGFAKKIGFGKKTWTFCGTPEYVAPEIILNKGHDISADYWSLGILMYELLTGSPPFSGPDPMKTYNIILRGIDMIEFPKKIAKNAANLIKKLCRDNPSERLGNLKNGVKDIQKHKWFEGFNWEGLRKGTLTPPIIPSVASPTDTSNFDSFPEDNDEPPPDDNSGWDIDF

Structure (SMILES) | Avg POC PRKG1beta (PRKG1beta) [POC] | Avg POC GRK7 (GRK7) [POC] | Avg POC TrkA (TrkA) [POC] | Avg POC CDK9/cyclinT1 (CDK9/cyclinT1) [POC] | Avg POC GRK6 (GRK6) [POC] | Avg POC CSK (CSK) [POC] | Avg POC IGF-1R Activated (IGF-1R Activated) [POC] | Avg POC LOK (LOK) [POC] | Avg POC IGF-1R (IGF-1R) [POC] | Avg POC Abl2 (Abl2) [POC] | Avg POC EphA3 (EphA3) [POC] | Avg POC AKT3 (AKT3) [POC] | Avg POC p38delta (p38delta) [POC] | Avg POC MSK2 (MSK2) [POC] | Avg POC MRCKalpha (MRCKalpha) [POC] | Avg POC Tie2 (Tie2) [POC] | Avg POC CK1gamma1 (CK1gamma1) [POC] | Avg POC MST2 (MST2) [POC] | Avg POC WNK3 (WNK3) [POC] | Avg POC PKCzeta (PKCzeta) [POC] | further results
COCc1ccc(C2CCC2)c(CNC(=O)Nc2c(C)c(-c3cnc(C)nc3)nn2-c2ccccc2)c1 [Example 10, 1-(2-cyclobutyl-5-(methoxymethyl)benzyl)-3-(4-methyl-3-(2-methylpyrimidin-5-yl)-1-phenyl-1H-pyrazol-5-yl)urea] | 107.5 | 105 | −1 | 98 | 97.5 | 132 | 93.5 | 101 | 82 | 95 | 119 | 102.5 | 81 | 110.5 | 122 | 81.5 | 79 | 97.5 | 101.5 | 92.5 | Avg POC PKCbetaII (PKCbetaII): 94 POC; Avg POC SRPK1 (SRPK1): 116 POC; Avg POC Hck (Hck): 67 POC; Avg POC SIK (SIK): 104 POC; Avg POC Plk3 (Plk3): 111 POC; Avg POC SRC (SRC): 96 POC; Avg POC MSK1 (MSK1): 88.5 POC; Avg POC MST3 (MST3): 99 POC; Avg POC DYRK2 (DYRK2): 92.5 POC; Avg POC AKT1 (AKT1): 105 POC; Avg POC JAK3 (JAK3): 94.5 POC; Avg POC CDK3/cyclinE (CDK3/cyclinE): 90.5 POC; Avg POC MKK7beta (MKK7beta): 132.5 POC; Avg POC ULK3 (ULK3): 93.5 POC
COCc1ccc(C(F)(F)F)c(CNC(=O)Nc2c(C)c(-c3cnn(C)c3)nn2-c2ccccc2)c1 [Example 33, 1-(1′,4-dimethyl-1-phenyl-1H,1′H-[3,4′-bipyrazol]-5-yl)-3-(5-(methoxymethyl)-2-(trifluoromethyl)benzyl)urea] | 121 | 103 | −1 | 108 | 99 | 127.5 | 86.5 | 93.5 | 44 | 139.5 | 116.5 | 124 | 85 | 207.5 | 147 | 137.5 | 105.5 | 98 | 111 | 99 | Avg POC PKCbetaII (PKCbetaII): 96 POC; Avg POC SRPK1 (SRPK1): 113.5 POC; Avg POC Hck (Hck): 140 POC; Avg POC SIK (SIK): 139 POC; Avg POC Plk3 (Plk3): 109.5 POC; Avg POC SRC (SRC): 101 POC; Avg POC MSK1 (MSK1): 147 POC; Avg POC MST3 (MST3): 126.5 POC; Avg POC DYRK2 (DYRK2): 91.5 POC; Avg POC AKT1 (AKT1): 132 POC; Avg POC JAK3 (JAK3): 114 POC; Avg POC CDK3/cyclinE (CDK3/cyclinE): 98.5 POC; Avg POC MKK7beta (MKK7beta): 159 POC; Avg POC ULK3 (ULK3): 99.5 POC
